Measurements taken from patent US6911445B2, “Antidepressant cycloalkylamine derivatives of heterocycle-fused benzodioxans” (Wyeth, priority 2002, dated 2005).
pIC50, pKi: −log10 of the molar value.

Assays:
[1] = target: T1, human 5HT1A receptors (Homo sapiens, UniProt P08908); assay: Displacement of [3H] 8-OH-DPAT from 5HT1A receptor in stably transfected CHO cells; type: binding; settings: CHO cells with human 5HT1A receptors, read-out: 5HT1A Receptor Affinity Ki
T1 construct: expressed in transfected cells; host or cells: CHO cells
T1 sequence (P08908 1-422): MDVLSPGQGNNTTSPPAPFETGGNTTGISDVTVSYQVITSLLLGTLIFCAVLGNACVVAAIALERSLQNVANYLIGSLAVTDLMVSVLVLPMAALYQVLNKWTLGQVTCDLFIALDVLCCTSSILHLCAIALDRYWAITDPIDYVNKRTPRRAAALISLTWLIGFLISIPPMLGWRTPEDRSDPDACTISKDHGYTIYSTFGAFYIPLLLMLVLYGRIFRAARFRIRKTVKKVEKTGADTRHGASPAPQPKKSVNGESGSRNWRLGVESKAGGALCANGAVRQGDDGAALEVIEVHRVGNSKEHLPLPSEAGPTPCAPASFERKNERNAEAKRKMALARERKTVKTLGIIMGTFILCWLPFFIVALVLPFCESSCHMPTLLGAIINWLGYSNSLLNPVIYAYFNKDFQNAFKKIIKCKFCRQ
From the text: High affinity for the serotonin 5HT1A receptor was established by testing the claimed compound's ability to displace [^3H] 8-OH-DPAT (dipropylamino-tetralin) from the 5HT1A serotonin receptor following a modification of the procedure of Hall, et al., J. Neurochem. 44, 1685 (1985), which utilizes CHO cells stably transfected with human 5HT1A receptors.

[2] = target: T2, serotonin transporter (Rattus norvegicus, UniProt P31652); assay: Displacement of 3H-paroxetine from male rat frontal cortical membranes (serotonin transporter affinity); type: binding; settings: read-out: 5-HT Transporter Affinity Ki
T2 construct: displace ^3H-paroxetine from male rat frontal cortical membranes; from tissue; host or cells: male rat frontal cortex membranes
T2 sequence (P31652 whole entry): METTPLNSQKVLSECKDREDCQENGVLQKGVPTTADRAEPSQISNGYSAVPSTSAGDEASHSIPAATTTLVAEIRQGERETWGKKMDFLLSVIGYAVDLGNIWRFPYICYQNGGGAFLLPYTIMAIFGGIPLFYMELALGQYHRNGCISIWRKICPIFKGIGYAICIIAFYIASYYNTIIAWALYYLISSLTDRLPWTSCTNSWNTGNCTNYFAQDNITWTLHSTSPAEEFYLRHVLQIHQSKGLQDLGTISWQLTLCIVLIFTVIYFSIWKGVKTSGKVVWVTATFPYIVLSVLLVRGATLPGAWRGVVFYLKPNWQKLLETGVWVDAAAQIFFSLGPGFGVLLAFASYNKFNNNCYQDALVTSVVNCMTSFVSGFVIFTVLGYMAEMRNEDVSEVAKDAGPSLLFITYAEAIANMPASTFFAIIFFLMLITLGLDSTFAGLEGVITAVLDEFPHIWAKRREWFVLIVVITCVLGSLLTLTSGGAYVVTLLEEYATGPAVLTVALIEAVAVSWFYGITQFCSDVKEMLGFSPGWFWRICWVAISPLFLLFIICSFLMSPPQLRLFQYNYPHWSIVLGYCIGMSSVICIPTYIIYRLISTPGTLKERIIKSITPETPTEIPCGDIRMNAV

[3] = target: T3, cloned human 5HT1A receptors (Homo sapiens, UniProt P08908); assay: 35S-GTPγS binding assay, membranes containing cloned human 5HT1A receptors; type: biochemical
T3 construct: expressed in transfected cells
T3 sequence (P08908 1-422): T1 sequence (P08908 1-422)
Protocol: Antagonist activity at 5HT1A receptors was established by using a ^35S-GTPγS binding assay similar to that used by Lazareno and Birdsall (Br. J. Pharmacol. 109:1120, 1993), in which the test compound's ability to affect the binding of ^35S-GTPγS to membranes containing cloned human 5HT1A receptors was determined. Agonists produce an increase in binding whereas antagonists produce no increase but rather reverse the effects of the standard agonist 8-OH-DPAT. The test compound's maximum inhibitory effect is represented as the Imax, while its potency is defined by the IC50.

In the case of `Cc1nc2ccc3c(c2o1)O[C@@H](CN[C@H]1CC[C@H](c2c[nH]c4ccc(F)cc24)C1)CO3` (mixture of isomers) [Example 10, N-[(trans)-3-(5-Fluoro-1H-indol-3-yl)cyclopentyl]-N-{[(8S)-2-methyl-7,8-dihydro[1,4]dioxino[2,3-g][1,3]benzoxazol-8-yl]methyl}amine], the pKi [1] was 7.54, the pKi [2] was 8.86 and the melting point was 79 to 82 °C. For the same compound, the pIC50 ([3]; antagonist potency, reversal of the standard agonist 8-OH-DPAT, read-out: 5HT1A Function IC50) was 6.76 and the 5HT1A Function (Imax) ([3]; maximum inhibitory effect, value in parentheses) was 85%.
